Patent US20080176862A1, “New Compounds 617” (ASTRAZENECA AB, priority 2006, published 2008)
Structures can show the parent of a compound that is named as a salt.

target: T1, human β-Secretase (soluble part, AA1-AA460; sBACE-Fc) (Homo sapiens, UniProt P56817); test: TR-FRET assay; format: biochemical; settings: IC50 (nM) in TR-FRET assay, substrate (Europium)CEVNLDAEFK(Qsy7) 100 nM, pH 4.5, 15 min at RT
T1 construct: The soluble part of the human β-Secretase (AA1-AA460) was cloned into the ASP2-Fc10-1-IRES-GFP-neoK mammalian expression vector; made in house
T1 sequence (P56817 22-460): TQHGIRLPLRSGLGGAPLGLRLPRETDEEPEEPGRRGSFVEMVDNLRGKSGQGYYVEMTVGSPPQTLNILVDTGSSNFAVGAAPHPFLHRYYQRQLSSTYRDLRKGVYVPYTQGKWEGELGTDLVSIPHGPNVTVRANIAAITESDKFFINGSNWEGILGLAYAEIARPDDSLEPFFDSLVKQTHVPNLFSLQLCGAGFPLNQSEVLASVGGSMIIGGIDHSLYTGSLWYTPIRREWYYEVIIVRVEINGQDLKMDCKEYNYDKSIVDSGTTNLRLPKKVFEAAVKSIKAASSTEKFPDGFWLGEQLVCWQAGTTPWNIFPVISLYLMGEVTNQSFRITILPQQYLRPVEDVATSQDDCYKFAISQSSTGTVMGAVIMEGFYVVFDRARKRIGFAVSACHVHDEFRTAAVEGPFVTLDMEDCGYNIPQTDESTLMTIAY

| SMILES | IC50 |
| --- | --- |
| COc1cc(Cl)cc(-c2cc(C3(c4cccc(OS(=O)(=O)C(C)C)c4)N=C(N)N(C)C3=O)ccc2F)c1 (stereo not shown) [Example 107, 3-[2-Amino-4-(3′-chloro-6-fluoro-5′-methoxybiphenyl-3-yl)-1-methyl-5-oxo-4,5-dihydro-1H-imidazol-4-yl]phenyl propane-2-sulfonate] | 311 nM |

same assay, conditions: substrate (Europium)CEVNLDAEFK(Qsy7) 100 nM, pH 4.5, 15 min at RT; read-out: IC50 (nM) in TR-FRET assay

| SMILES | IC50 |
| --- | --- |
| COc1ccnc(-c2cc(C3(c4cccc(OS(C)(=O)=O)c4)N=C(N)N(C)C3=O)ccc2F)n1 (stereo not shown) [Example 7, 3-{2-Amino-4-[4-fluoro-3-(4-methoxypyrimidin-2-yl)phenyl]-1-methyl-5-oxo-4,5-dihydro-1H-imidazol-4-yl}phenyl methanesulfonate 0.5 acetate] | 1200 nM |
| COc1ccc(C#N)c(-c2cc(C3(c4ccc(OS(C)(=O)=O)cc4)N=C(N)N(C)C3=O)ccc2F)c1 (stereo not shown) [Example 167, 4-[2-Amino-4-(2′-cyano-6-fluoro-5′-methoxybiphenyl-3-yl)-1-methyl-5-oxo-4,5-dihydro-1H-imidazol-4-yl]phenyl methanesulfonate] | 46 nM |
| COc1ccc(C(C)=O)c(-c2cc(C3(c4ccc(OS(C)(=O)=O)cc4)N=C(N)N(C)C3=O)ccc2F)c1 (stereo not shown) [Example 289, 4-[4-(2′-Acetyl-6-fluoro-5′-methoxybiphenyl-3-yl)-2-amino-1-methyl-5-oxo-4,5-dihydro-1H-imidazol-4-yl]phenyl methanesulfonate] | 115 nM |
| CN1C(=O)C(c2ccc(OC(F)(F)F)cc2)(c2cccc(-c3cc(Cl)cc(OS(C)(=O)=O)c3)c2)N=C1N (stereo not shown) [Example 59, 3′-{2-Amino-1-methyl-5-oxo-4-[4-(trifluoromethoxy)phenyl]-4,5-dihydro-1H-imidazol-4-yl}-5-chlorobiphenyl-3-ylmethanesulfonate] | 128 nM |
| COc1cc(OS(C)(=O)=O)cc(-c2cc(C3(c4ccnc(C)c4)N=C(N)N(C)C3=O)ccc2F)c1 (stereo not shown) [Example 211, 5′-[2-Amino-1-methyl-4-(2-methylpyridin-4-yl)-5-oxo-4,5-dihydro-1H-imidazol-4-yl]-2′-fluoro-5-methoxybiphenyl-3-yl methanesulfonate hydrocloride] | 104 nM |
| COc1ccc(OC)c(S(=O)(=O)Oc2ccc(C3(c4ccc(F)c(-c5cncnc5)c4)N=C(N)N(C)C3=O)cc2)c1 (stereo not shown) [Example 277, 4-[2-Amino-4-(4-fluoro-3-pyrimidin-5-ylphenyl)-1-methyl-5-oxo-4,5-dihydro-1H-imidazol-4-yl]phenyl 2,5-dimethoxybenzenesulfonate] | 183 nM |
| CC(C)S(=O)(=O)Oc1cccc(C2(c3ccc(F)c(-c4cc(Cl)cnc4F)c3)N=C(N)N(C)C2=O)c1 (stereo not shown) [Example 103, 3-{2-Amino-4-[3-(5-chloro-2-fluoropyridin-3-yl)-4-fluorophenyl]-1-methyl-5-oxo-4,5-dihydro-1H-imidazol-4-yl}phenyl propane-2-sulfonate] | 227 nM |
| COc1cccc(-c2cc(C3(c4cccc(OS(=O)(=O)C(C)C)c4)N=C(N)N(C)C3=O)ccc2F)c1 (stereo not shown) [Example 108, 3-[2-Amino-4-(6-fluoro-3′-methoxybiphenyl-3-yl)-1-methyl-5-oxo-4,5-dihydro-1H-imidazol-4-yl]phenyl propane-2-sulfonate] | 186 nM |
| Cc1nn(C)c(Cl)c1S(=O)(=O)Oc1cccc(C2(c3ccc(F)c(-c4cncnc4)c3)N=C(N)N(C)C2=O)c1 (stereo not shown) [Example 241, 3-[2-Amino-4-(4-fluoro-3-pyrimidin-5-ylphenyl)-1-methyl-5-oxo-4,5-dihydro-1H-imidazol-4-yl]phenyl 5-chloro-1,3-dimethyl-1H-pyrazole-4-sulfonate] | 20 nM |
| COc1ccnc(-c2cc(C3(c4ccc(OS(C)(=O)=O)cc4)N=C(N)N(C)C3=O)ccc2F)c1 (stereo not shown) [Example 301, 4-{2-Amino-4-[4-fluoro-3-(4-methoxypyridin-2-yl)phenyl]-1-methyl-5-oxo-4,5-dihydro-1H-imidazol-4-yl}phenyl methanesulfonate 0.75 acetate] | 53 nM |
| COc1cc(OS(C)(=O)=O)cc(-c2cccc(C3(c4ccnc(Cl)c4)N=C(N)N(C)C3=O)c2)c1 (stereo not shown) [Example 312, 2-Amino-5-(2-chloropyridin-4-yl)-5-[3-(3-methoxy-5-methylsulfonyloxy-phenyl)phenyl]-3-methyl-imidazol-4-one hydrochloride] | 26 nM |
| CCCS(=O)(=O)Oc1ccc(C2(c3ccc(F)c(-c4cncc(OC)c4)c3)N=C(N)N(C)C2=O)cc1 (stereo not shown) [Example 129, 4-{2-Amino-4-[4-fluoro-3-(5-methoxypyridin-3-yl)phenyl]-1-methyl-5-oxo-4,5-dihydro-1H-imidazol-4-yl}phenyl propane-1-sulfonate hydrochloride] | 35 nM |
| CN1C(=O)C(c2ccc(OS(=O)(=O)C(F)(F)F)cc2)(c2ccc(F)c(-c3cnccn3)c2)N=C1N (stereo not shown) [Example 143, 4-[2-Amino-4-(4-fluoro-3-pyrazin-2-ylphenyl)-1-methyl-5-oxo-4,5-dihydro-1H-imidazol-4-yl]phenyl trifluoromethanesulfonate 0.5 acetate] | 214 nM |
| COc1cccc(-c2ccnc(C3(c4ccc(OS(=O)(=O)C(F)(F)F)cc4)N=C(N)N(C)C3=O)c2)c1 (stereo not shown) [Example 298, 4-{2-Amino-4-[4-(3-methoxyphenyl)pyridin-2-yl]-1-methyl-5-oxo-4,5-dihydro-1H-imidazol-4-yl}phenyl trifluoromethanesulfonate 0.5 acetate] | 874 nM |
| CN1C(=O)C(c2ccc(OS(C)(=O)=O)cc2)(c2ccnc(-c3cccnc3F)c2)N=C1N (stereo not shown) [Example 29, 4-[2-Amino-4-(2′-fluoro-2,3′-bipyridin-4-yl)-1-methyl-5-oxo-4,5-dihydro-1H-imidazol-4-yl]phenyl methanesulfonate 0.25 acetate] | 387 nM |
| CC(C)S(=O)(=O)Oc1cccc(C2(c3ccc(F)c(-c4cccc(Cl)c4)c3)N=C(N)N(C)C2=O)c1 (stereo not shown) [Example 106, 3-[2-Amino-4-(3′-chloro-6-fluorobiphenyl-3-yl)-1-methyl-5-oxo-4,5-dihydro-1H-imidazol-4-yl]phenyl propane-2-sulfonate] | 363 nM |
| CN1C(=O)C(c2ccc(OS(C)(=O)=O)cc2)(c2ccc(F)c(-c3cnccc3Cl)c2)N=C1N (stereo not shown) [Example 169, 4-{2-amino-4-[3-(4-chloropyridin-3-yl)-4-fluorophenyl]-1-methyl-5-oxo-4,5-dihydro-1H-imidazol-4-yl}phenyl methanesulfonate hydrochloride] | 171 nM |
| CCN1C(=O)C(c2ccc(OS(C)(=O)=O)cc2)(c2ccc(F)c(-c3cncnc3)c2)N=C1N (stereo not shown) [Example 162, 4-[2-Amino-4-(4-fluoro-3-pyrimidin-5-ylphenyl)-1-ethyl-5-oxo-4,5-dihydro-1H-imidazol-4-yl]phenyl methanesulfonate] | 682 nM |
| CN1C(=O)C(c2ccc(OS(C)(=O)=O)cc2)(c2ccnc(-c3cccc(C#N)c3)c2)N=C1N (stereo not shown) [Example 34, 4-{2-Amino-4-[2-(3-cyanophenyl)pyridin-4-yl]-1-methyl-5-oxo-4,5-dihydro-1H-imidazol-4-yl}phenyl methanesulfonate 0.25 acetate] | 924 nM |
| CN1C(=O)C(c2cccc(OS(=O)(=O)c3ccccn3)c2)(c2ccc(F)c(Br)c2)N=C1N (stereo not shown) [Example 226, 3-[2-Amino-4-(3-bromo-4-fluorophenyl)-1-methyl-5-oxo-4,5-dihydro-1H-imidazol-4-yl]phenyl pyridine-2-sulfonate] | 859 nM |
| COc1ccc(OC)c(S(=O)(=O)Oc2cccc(C3(c4ccc(F)c(-c5cncnc5)c4)N=C(N)N(C)C3=O)c2)c1 (stereo not shown) [Example 235, 3-[2-Amino-4-(4-fluoro-3-pyrimidin-5-ylphenyl)-1-methyl-5-oxo-4,5-dihydro-1H-imidazol-4-yl]phenyl 2,5-dimethoxybenzenesulfonate] | 589 nM |
| CN1C(=O)C(c2ccc(OS(C)(=O)=O)cc2)(c2ccc(F)c(C3=CCCCC3)c2)N=C1N (stereo not shown) [Example 299, 4-[2-Amino-4-(3-cyclohex-1-en-1-yl-4-fluorophenyl)-1-methyl-5-oxo-4,5-dihydro-1H-imidazol-4-yl]phenyl methanesulfonate 0.5 acetate] | 330 nM |
| CCCS(=O)(=O)Oc1cccc(C2(c3ccc(F)c(-c4cncc(OC)c4)c3)N=C(N)N(C)C2=O)c1 (stereo not shown) [Example 130, 3-{2-Amino-4-[4-fluoro-3-(5-methoxypyridin-3-yl)phenyl]-1-methyl-5-oxo-4,5-dihydro-1H-imidazol-4-yl}phenyl propane-1-sulfonate hydrochloride] | 59 nM |
| CN1C(=O)C(c2cccc(-c3cc(Cl)cc(OS(C)(=O)=O)c3)c2)(c2ccnc(Cl)c2)N=C1N (stereo not shown) [Example 311, 3′-(2-Amino-4-(2-chloropyridin-4-yl)-1-methyl-5-oxo-4,5-dihydro-1H-imidazol-4-yl)-5-chlorobiphenyl-3-yl methanesulfonate hydrochloride] | 24 nM |
| CCCS(=O)(=O)Oc1cccc(C2(c3ccc(F)c(-c4cccnc4F)c3)N=C(N)N(C)C2=O)c1 (stereo not shown) [Example 96, 3-{2-Amino-4-[4-fluoro-3-(2-fluoropyridin-3-yl)phenyl]-1-methyl-5-oxo-4,5-dihydro-1H-imidazol-4-yl}phenyl propane-1-sulfonate] | 242 nM |
| COc1cc(OS(C)(=O)=O)cc(-c2cc(C3(c4ccc(OC(F)F)cc4)N=C(N)N(C)C3=O)ccc2F)c1 (stereo not shown) [Example 69, 5′-{2-Amino-4-[4-(difluoromethoxy)phenyl]-1-methyl-5-oxo-4,5-dihydro-1H-imidazol-4-yl}-2′-fluoro-5-methoxybiphenyl-3-yl methanesulfonate hydrochloride] | 23 nM |
| CN1C(=O)C(c2cccc(OS(=O)(=O)c3ccc4c(c3)oc(=O)n4C)c2)(c2ccc(F)c(Br)c2)N=C1N (stereo not shown) [Example 229, 3-[2-Amino-4-(3-bromo-4-fluorophenyl)-1-methyl-5-oxo-4,5-dihydro-1H-imidazol-4-yl]phenyl 3-methyl-2-oxo-2,3-dihydro-1,3-benzoxazole-6-sulfonate] | 299 nM |
